The subject of assay [1] is human cervical cancer Hela cell lines. The assay is described as follows: MTT growth inhibition, Hela cells. It is filed as cell-based. As to conditions: Homo sapiens, 72 h after treatment, read-out: Drug concentration (IC50) at which 50% cancer cells survived.
Assay [2] relates to human chronic leukemia cells K562. As to the kind of experiment: MTT growth inhibition, K562 cells. It is filed as cell-based. As to conditions: 72 h after treatment, read-out: Drug concentration (IC50) at which 50% cancer cells survived.
The subject of assay [3] is human liver cancer cells HepG2. The assay is described as follows: MTT growth inhibition, HepG2 cells. As to conditions: 72 h after treatment, read-out: Drug concentration (IC50) at which 50% cancer cells survived. In kind it is cell-based.
For assay [4], the system named is human neuroma cells D54. As to the kind of experiment: MTT growth inhibition, D54 cells. It is filed as cell-based. As to conditions: Homo sapiens, 72 h after treatment, read-out: Drug concentration (IC50) at which 50% cancer cells survived.
Assay [5] relates to human oral epidermoid cancer cells KBV200. As to the kind of experiment: MTT growth inhibition, KBV200 cells. It is filed as cell-based. As to conditions: 72 h after treatment, read-out: Drug concentration (IC50) at which 50% cancer cells survived.
Assay [6] concerns human breast cancer cells MDA-MB231 xenograft. The assay is described as follows: In-vivo growth of MDA-MB231 xenografts in nude mice. On the set-up: species or system BALB/c nude mice. As to conditions: Mus musculus, MDA-MB-231, ip, MB-231 xenograft, vs DMSO solvent control, read-out: Curative effect (inhibition rate %) of tumor weight; for inhibition in vivo at 60 mg/kg: 60 mg/kg intraperitoneal once a day; for inhibition in vivo at 90 mg/kg: 90 mg/kg intraperitoneal once a day. The method, then: (§1) RPMI1640 and DMEM culture solutions: Hyclone Company; inactivated fetal bovine serum: Hyclone Company, preserved at −20° C.; trypsin: Amersco Company; and 0.4% trypan blue: Sigma Company;
(§2) (3) Observation of growth of tumors in nude mice: the activities (including food intake, traits of urine and stool, mental state and the like) of the nude mice and the tumor growth time and growth situation of the transplanted tumors were observed every day, the body weight and the size of the tumors were measured once every 2-3 days. The long diameter a and the short diameter b (mm) of each tumor were measured by a vernier caliper to calculate the volume, wherein the volume V=π1/2·ab^2 (mm^3);
(§3) (4) sacrifice of animals: the mice were anesthetized and photoed after treatment experiments; the nude mice were sacrificed by breaking neck, the tumor tissues were stripped under sterile conditions and the weight of the tumors was weighed; and the effects of the drugs on pathology and toxicity of the various organs and tissues were detected.

Assay [7] relates to human liver cancer cells SMMC7721 xenograft. The assay is described as follows: In-vivo growth of SMMC7721 xenografts in nude mice. On the set-up: species or system BALB/c nude mice. As to conditions: Mus musculus, SMMC-7721, ip, S-7721 xenograft, vs DMSO solvent control, read-out: Curative effect (inhibition rate %) of tumor weight; for inhibition in vivo at 60 mg/kg: 60 mg/kg intraperitoneal once a day; for inhibition in vivo at 90 mg/kg: 90 mg/kg intraperitoneal once a day. The protocol: as §1, §2, §3

For assay [8], the system named is H-Ras. The assay is described as follows: Western Blotting, H-Ras level. It is filed as cell-based. As to conditions: human liver cancer cells, Lewis lung cancer cells and other cancer cell lines and tumor tissues, read-out: Effective concentration (IC50) for inhibition of H-Ras. The source says:
(§4) Antibodies: primary antibodies of VEGFR, EGFR, c-Met, K-Ras, H-Ras, Akt, NF-κB, Cyclin D1, ER-alpha, Dvl-1, Dvl-2, Dvl-3, MMP-9, MMP2, β-catenin, Bcl-2, Bax, p53, p21, E-cadherin and Caspase3 protein, purchased from American Cell Signaling Technology Company and Santa Cruz Technology Company; and H3 acetylation, H4 acetylation and HDAC (HDAC3, HDAC4 and the like) Antibody Sample Kits, purchased from Cell Signaling Technology Company of the U.S.
(§5) (3) polyacrylamide gel electrophoresis (SDS-PAGE): an equal amount of protein lysate sample was used to separate protein, film transfer, and blocking, treated with appropriate primary antibodies and secondary antibodies in sequence, and the film was washed, then the color was developed with ECL kit, and a blot protein band was detected by exposure of an X-ray film; and a Gel-Pro Analyzer was used for quantitative analysis of gray degree, optical density value of the control group and the drug treatment group in various concentration were respectively compared with that of internal reference, the obtained ratios were respectively compared with the control group, and the protein expression level was semi-quantified.
In general terms: A western blot detects proteins with antibodies after separation by electrophoresis.

Assay [9] deals with HDAC4. As to the kind of experiment: Western Blotting, HDAC4 level. As to conditions: human liver cancer cells, Lewis lung cancer cells and other cancer cell lines and tumor tissues, read-out: Effective concentration (IC50) for inhibition of HDAC4. It is filed as cell-based.
Description: as §4, §5

The test system of assay [10] is p53. The assay is described as follows: Western Blotting, increase of p53 level. It is filed as cell-based. As to conditions: liver cancer cells, Lewis lung cancer cells and other cancer cell lines and tumor tissue protein lysates, 48 h treatment, read-out: Effective concentration to increase p53 by 50%.
Description: as §4, §5

Assay [11] has as its system E-cadherin. The assay is described as follows: Western Blotting, increase of E-cadherin level. In kind it is cell-based. As to conditions: liver cancer cells, Lewis lung cancer cells and other cancer cell lines and tumor tissue protein lysates, 48 h treatment, read-out: Effective concentration to increase E-cadherin by 50%.
Description: as §4, §5

Assay [12] deals with Caspase3. As to the kind of experiment: Western Blotting, increase of Caspase3 level. As to conditions: liver cancer cells, Lewis lung cancer cells and other cancer cell lines and tumor tissue protein lysates, 48 h treatment, read-out: Effective concentration to increase Caspase-3 by 50%. In kind it is cell-based.
Description: as §4, §5

SMILES strings stand for the structures.

For `CCNC(=O)CCC(NC(=O)c1cc2cc([N+](=O)[O-])ccc2oc1=O)C(=O)OCC` (stereo in doubt) [Compound If, (R)-2-(6-nitro-2-oxo-2H-benzopyran-3-carboxamido)-5-ethylamino-5-oxo-pentanoic acid ethyl ester], the IC50 in assay [1] was 71 µM; in assay [2], 91 µM; in assay [3] it was 130 µM; in assay [4], 105 µM; in assay [5] it was 102 µM; in assay [8], under 55 µM. In addition, the IC50 in assay [9] is under 45 µM. In addition, the inhibition in vivo at 60 mg/kg in assay [6] amounted to 52.6%; in assay [7] it was 65.7%. In addition, the inhibition in vivo at 90 mg/kg came to 62.3% in assay [6] and 75.7% in assay [7]. For the same molecule, the EC50 in [10] was under 65 µM; in assay [11] it was under 65 µM; in assay [12], under 80 µM.
Regarding `CCNC(=O)CCC(NC(=O)c1cc2ccccc2oc1=O)C(=O)OC` (stereo not drawn) [Compound Ia, methyl 5-ethylamino-5-oxo-2-(2-oxo-2H-benzopyran-3-carboxamido)pentanoate], the IC50 in assay [1] was 64 ± 20 µM; in assay [2] it was 248 µM; in [3] it was 250 µM; in assay [4], 160 µM; in assay [5], 240 µM; in assay [8], under 85 µM. Moreover, in assay [9], the IC50 is under 65 µM. The inhibition in vivo at 60 mg/kg stood at 50.1% in assay [6] and 52.7% in assay [7]. The inhibition in vivo at 90 mg/kg in assay [6] came to 60.1%; in assay [7], 61.9%. In addition, the EC50 in assay [10] is under 125 µM; in assay [11], under 75 µM; in [12], under 125 µM.
For the molecule `CCNC(=O)CC[C@@H](NC(=O)c1cc2cc(Br)ccc2oc1=O)C(=O)OCC` [Compound Id, (R)-2-(6-Br-2-oxo-2H-benzopyran-3-carboxamido)-5-ethylamino-5-oxo-pentanoic acid ethyl ester], the IC50 in assay [1] is 75 µM; in [2], 125 µM; in assay [3], 125 µM; in assay [4], 92 µM; in assay [5], 112 µM; in [8] it was under 60 µM. The IC50 in assay [9] was under 50 µM. Further, the inhibition in vivo at 60 mg/kg in [6] was 53.1%; in [7], 67.2%. Moreover, the inhibition in vivo at 90 mg/kg in assay [6] stood at 66.7%; in [7] it was 75.7%. In addition, the EC50 in [10] is under 100 µM; in [11], under 65 µM; in assay [12] it was under 100 µM.

For the origin of these results see patent US9518038B2, “Condensation product of theanine derivative and carboxylic acid coumarin derivative, its intermediate, preparation method and use thereof” (SHANDONG YINGDONG YINGHAO BIOTECHNOLOGY, INC., priority 2012, dated 2016).
